{"source": "patent US20100173780A1", "about": "“POLYPHENOL-CONTENT-[…] FOR PLANT” (COSMO OIL CO., LTD., priority 2006, published 2010)", "key": {"[1]": {"test_system": "pear", "assay": "Amount of polyphenol in pear after ALA treatment (HPLC)", "type": "in vivo, pear (Rosaceae, genus pear, race Kosui)", "conditions": "3 ppm", "method": "(§1) Two containers (length: 0.75 m, width 0.5 m) were provided and soil was placed in each of them. A Chemical fertilizer (nitrogen content:phosphorus content:potassium content=15:15:15 as mass ratio) was used as a base fertilizer and young plants of green pepper (Solanaceae, genus cayenne, race Miogi) were grown for two months according to a conventional method. Water was applied to the young plants once a day by means of a sprinkling can. Prior to one month from harvest, treatment was conducted once a week with 50 mL per container of each aqueous solution containing 0 ppm (control) or 1 ppm of 5-aminolevulinic acid hydrochloride to which a spreading agent, Approach BI (manufactured by Kao Corporation) had been added in a ratio of 0.1% by mass. After harvest, 3 g of green pepper was finely cut with scissors and a kitchen knife and then homogenized after addition of water. The homogenized one was diluted up to 6 mL with distilled water (stock solution) and the stock solution was divided into three even portions and used in the following extraction methods (1) to (3). (1) Three mL of ethyl acetate was added to 2 mL of the stock solution and the resultant one was centrifuged at 3000 rpm for 10 minutes. The supernatant was transferred to a spit tube and was evaporated to dryness with nitrogen gas while the tube was immersed in a warm bath at about 60° C. Thereto were added 200 μL of methanol and 100 μL of distilled water, thereby the volume being made 300 μL. (2) Two mL of methanol was added to 2 mL of the stock solution and the resultant one was centrifuged at 3000 rpm for 10 minutes. The supernatant was transferred to a spit tube and was evaporated to dryness with nitrogen gas while the tube was immersed in a warm bath at about 60° C. Thereto were added 200 μL of methanol and 100 μL of distilled water, thereby the volume being made 300 μL. (3) One mL of 0.1N hydrochloric acid was added to 2 mL of the stock solution and the resultant one was transferred to a plastic tube and kept in a drive-lock bath at 96.5° C. for 1 hour to effect hydrolysis. Five mL of ethyl acetate was added thereto and the resultant one was centrifuged at 3000 rpm for 10 minutes. The supernatant was transferred to a spit tube and was evaporated to dryness with nitrogen gas while the tube was immersed in a warm bath at about 60° C. Thereto were added 200 μL of methanol and 100 μL of distilled water, thereby the volume being made 300 μL. The samples from (1) to (3) were measured by high-performance liquid chromatography (HPLC) (analytical conditions: the measurement was performed at a flow rate of 1.0 mL/min at a column temperature of 40° C. using a wavelength of 350 nm, using Liquid A (80% by volume of methanol/5% by volume of acetic acid) or Liquid B (10% by volume of methanol/5% by volume of acetic acid) as an eluent, and using a column of Hichrom5C18, T898, 4.6 mm×[…] (manufactured by LLOYD′S REGISTER QUALITY COMPANY) and each concentration was calculated based on standard solutions. In Table 1, the most highly extracted value was cited among the results measured with each of the extraction methods (1) to (3). Moreover, the sum of individual concentration of polyphenol used in this time was regarded as the total amount of polyphenol.\nPrior to 150 days from harvest, treatment to pear\n([…], genus pear, race Kosui) grown in a production farm field was conducted once a fortnight with a spraying amount of 300 L/tan of each aqueous solution containing 0 ppm (control) or 3 ppm of 5-aminolevulinic acid hydrochloride to which a spreading agent, Approach BI (manufactured by Kao Corporation) had been added in a ratio of 0.1% by mass. After harvest, the content of polyphenol was analyzed by HPLC in the same manner as in Example 1."}, "[2]": {"test_system": "tea", "assay": "Amount of polyphenol in tealeaf after ALA treatment (HPLC)", "type": "in vivo, tea (Camelliaceae, genus camellia, race Yabukita)", "conditions": "3 ppm", "method": "as §1\nPrior to 210 days from harvest, treatment to tea (Camelliaceae, genus camellia, race Yabukita) grown in a production farm field was conducted once a month with a spraying amount of 100 L/tan of each aqueous solution containing 0 ppm (control) or 3 ppm of 5-aminolevulinic acid hydrochloride. After harvest, the content of polyphenol was analyzed by HPLC in the same manner as in Example 1."}, "[3]": {"test_system": "green soybean", "assay": "Amount of polyphenol in green soybean after ALA treatment (HPLC)", "type": "in vivo, green soybean (Lagminosae, genus soybean, race Hakusan)", "conditions": "1 ppm, 100 L/tan once a fortnight after flowering", "method": "as §1\nPrior to 210 days from harvest, treatment to green soybean (Lagminosae, genus soybean, race Hakusan) grown in a production farm field was conducted once a fortnight after flowering with a spraying amount of 100 L/tan of each aqueous solution containing 0 ppm (control) or 1 ppm of 5-aminolevulinic acid hydrochloride. After harvest, the content of polyphenol was analyzed by HPLC in the same manner as in Example 1."}, "[4]": {"test_system": "asparagus", "assay": "Amount of polyphenol in asparagus after ALA treatment (HPLC)", "type": "in vivo, asparagus (Liliaceae, genus asparagus, race Welcome)", "conditions": "3 ppm", "method": "as §1\nPrior to 150 days from harvest, treatment to tetraennial-root asparagus (Liliaceae, genus asparagus, race Welcome) grown in a vertical stem form in a greenhouse was conducted once a fortnight with a spraying amount of 100 L/tan of each solution containing 0 ppm (control) or 3 ppm of 5-aminolevulinic acid hydrochloride. After harvest, the content of polyphenol was analyzed in the same manner as in Example 1."}, "[5]": {"conditions": "300 L/tan once a fortnight from 150 days before harvest, HPLC"}, "[6]": {"conditions": "100 L/tan once a month from 210 days before harvest, HPLC"}, "[7]": {"conditions": "greenhouse, 100 L/tan once a fortnight from 150 days before harvest, HPLC"}}, "data": [{"compound": "Cl.NCC(=O)CCC(=O)O", "note": "[ALA, 5-aminolevulinic acid hydrochloride]", "values": [{"measurement": "Apigenin amount in pear", "setting": "[1]; [5]", "result": 95, "unit": "ng/g"}, {"measurement": "Caffeic acid amount in pear", "setting": "[1]; [5]", "result": 8400, "unit": "ng/g"}, {"measurement": "Chlorogenic acid amount in pear", "setting": "[1]; [5]", "result": 1819, "unit": "ng/g"}, {"measurement": "Ferulic acid amount in pear", "setting": "[1]; [5]", "result": 12456, "unit": "ng/g"}, {"measurement": "Hesperetin amount in pear", "setting": "[1]; [5]", "result": 81, "unit": "ng/g"}, {"measurement": "Isorhamnetin amount in pear", "setting": "[1]; [5]", "result": 567, "unit": "ng/g"}, {"measurement": "Kaempferol amount in pear", "setting": "[1]; [5]", "result": 18, "unit": "ng/g"}, {"measurement": "Luteolin amount in pear", "setting": "[1]; [5]", "result": 61, "unit": "ng/g"}, {"measurement": "Quercetin amount in pear", "setting": "[1]; [5]", "result": 111, "unit": "ng/g"}, {"measurement": "Rutin amount in pear", "setting": "[1]; [5]", "result": 1595, "unit": "ng/g"}, {"measurement": "Total amount of polyphenol in pear", "setting": "[1]; 300 L/tan once a fortnight from 150 days before harvest, sum of the individual polyphenols", "result": 25202, "unit": "ng/g"}, {"measurement": "ALA/control ratio of total amount of polyphenol in pear", "setting": "[1]; 300 L/tan once a fortnight, versus 0 ppm control", "result": 2.3}, {"measurement": "Apigenin amount in tealeaf", "setting": "[2]; [6]", "result": 915, "unit": "ng/g"}, {"measurement": "Caffeic acid amount in tealeaf", "setting": "[2]; [6]", "result": 0, "unit": "ng/g"}, {"measurement": "Chlorogenic acid amount in tealeaf", "setting": "[2]; [6]", "result": 3474, "unit": "ng/g"}, {"measurement": "Ferulic acid amount in tealeaf", "setting": "[2]; [6]", "result": 17172, "unit": "ng/g"}, {"measurement": "Hesperetin amount in tealeaf", "setting": "[2]; [6]", "result": 25887, "unit": "ng/g"}, {"measurement": "Isorhamnetin amount in tealeaf", "setting": "[2]; [6]", "result": 3881, "unit": "ng/g"}, {"measurement": "Kaempferol amount in tealeaf", "setting": "[2]; [6]", "result": 970, "unit": "ng/g"}, {"measurement": "Luteolin amount in tealeaf", "setting": "[2]; [6]", "result": 2181, "unit": "ng/g"}, {"measurement": "Quercetin amount in tealeaf", "setting": "[2]; [6]", "result": 8249, "unit": "ng/g"}, {"measurement": "Rutin amount in tealeaf", "setting": "[2]; [6]", "result": 4519, "unit": "ng/g"}, {"measurement": "Total amount of polyphenol in tealeaf", "setting": "[2]; 100 L/tan once a month from 210 days before harvest, sum of the individual polyphenols", "result": 67248, "unit": "ng/g"}, {"measurement": "ALA/control ratio of total amount of polyphenol in tealeaf", "setting": "[2]; 100 L/tan once a month, versus 0 ppm control", "result": 1.1}, {"measurement": "Apigenin amount in green soybean", "setting": "[3]; HPLC", "result": 11, "unit": "ng/g"}, {"measurement": "Caffeic acid amount in green soybean", "setting": "[3]; HPLC", "result": 0, "unit": "ng/g"}, {"measurement": "Chlorogenic acid amount in green soybean", "setting": "[3]; HPLC", "result": 17, "unit": "ng/g"}, {"measurement": "Ferulic acid amount in green soybean", "setting": "[3]; HPLC", "result": 3963, "unit": "ng/g"}, {"measurement": "Hesperetin amount in green soybean", "setting": "[3]; HPLC", "result": 1841, "unit": "ng/g"}, {"measurement": "Isorhamnetin amount in green soybean", "setting": "[3]; HPLC", "result": 0, "unit": "ng/g"}, {"measurement": "Kaempferol amount in green soybean", "setting": "[3]; HPLC", "result": 0, "unit": "ng/g"}, {"measurement": "Luteolin amount in green soybean", "setting": "[3]; HPLC", "result": 19, "unit": "ng/g"}, {"measurement": "Quercetin amount in green soybean", "setting": "[3]; HPLC", "result": 261, "unit": "ng/g"}, {"measurement": "Rutin amount in green soybean", "setting": "[3]; HPLC", "result": 1032, "unit": "ng/g"}, {"measurement": "Total amount of polyphenol in green soybean", "setting": "[3]; sum of the individual polyphenols", "result": 7143, "unit": "ng/g"}, {"measurement": "ALA/control ratio of total amount of polyphenol in green soybean", "setting": "[3]; versus 0 ppm control", "result": 1.4}, {"measurement": "ALA/control ratio of total amount of polyphenol in asparagus", "setting": "[4]; 100 L/tan once a fortnight, versus 0 ppm control", "result": 2.3}, {"measurement": "Apigenin amount in asparagus", "setting": "[4]; [7]", "result": 456, "unit": "ng/g"}, {"measurement": "Caffeic acid amount in asparagus", "setting": "[4]; [7]", "result": 0, "unit": "ng/g"}, {"measurement": "Chlorogenic acid amount in asparagus", "setting": "[4]; [7]", "result": 2983, "unit": "ng/g"}, {"measurement": "Ferulic acid amount in asparagus", "setting": "[4]; [7]", "result": 9899, "unit": "ng/g"}, {"measurement": "Hesperetin amount in asparagus", "setting": "[4]; [7]", "result": 20198, "unit": "ng/g"}, {"measurement": "Isorhamnetin amount in asparagus", "setting": "[4]; [7]", "result": 1022, "unit": "ng/g"}, {"measurement": "Kaempferol amount in asparagus", "setting": "[4]; [7]", "result": 723, "unit": "ng/g"}, {"measurement": "Luteolin amount in asparagus", "setting": "[4]; [7]", "result": 1923, "unit": "ng/g"}, {"measurement": "Quercetin amount in asparagus", "setting": "[4]; [7]", "result": 5533, "unit": "ng/g"}, {"measurement": "Rutin amount in asparagus", "setting": "[4]; [7]", "result": 40234, "unit": "ng/g"}, {"measurement": "Total amount of polyphenol in asparagus", "setting": "[4]; greenhouse, 100 L/tan once a fortnight from 150 days before harvest, sum of the individual polyphenols", "result": 82971, "unit": "ng/g"}]}]}
